Experimental findings from ChEMBL document CHEMBL1201862, “PubChem BioAssay data set” (2004) are described below.

Among the test systems are CAKI-1; HCT-15; SNB-75; UACC-62; HCC 2998; U-251; NCI-H23; DU-145; SF-539; LOX IMVI; OVCAR-3; SNB-19; A498; Hs-578T; OVCAR-4; SK-MEL-2; Malme-3M; SK-MEL-5; CCRF-CEM; BT-549.
Holding throughout (test): DTP human tumour cell line panel, 48 h

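Values below derive from 48-hour exposures of cells grown in 96-well plates, with endpoints linearly interpolated between the two concentrations bracketing the appropriate inhibition level. GI50 marks 50% less growth.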 Active and inactive are the calls of the source. Cut-off read from the data, not from the text of the source: active = GI50 up to about 1.1 µM and inactive = higher.

Regarding `CSC(Cc1ccc2c(c1)Sc1ccccc1O2)=[N+]1CCOCC1`, the GI50 – broadly, the concentration at which growth is held to half of that of the control – with CAKI-1 was > 100 µM (inactive); in the test with HCT-15 it was 43.5 µM; in the test with SNB-75, 32.4 µM (inactive); in the test with UACC-62, 58.5 µM (inactive); in the test on HCC 2998, 91.8 µM (inactive); with U-251, 48.1 µM (inactive). For the same compound, the GI50 with NCI-H23 was 40.7 µM (inactive); in the test on DU-145 it was > 100 µM (inactive); with SF-539, 74.6 µM (inactive); in the test on LOX IMVI, 80.4 µM (inactive); with OVCAR-3, 52.6 µM (inactive); with SNB-19, 83.9 µM (inactive). The GI50 with A498 was 46.5 µM (inactive); in the test with Hs-578T, 30.7 µM (inactive); with OVCAR-4, > 100 µM (inactive); in the test on SK-MEL-2 it was > 100 µM (inactive); in the test on Malme-3M, 26.4 µM (inactive).
On to `CC(=O)OC12C3C4C1C1C2C3C41OC(C)=O` (centres undefined), for which the GI50 in the test with CAKI-1 is > 100 µM (inactive); in the test on HCT-15, more than 100 µM; in the test with SNB-75, > 100 µM (inactive); in the test with UACC-62 it was > 100 µM (inactive); in the test with HCC 2998, > 100 µM (inactive); in the test with U-251, > 100 µM (inactive). Besides, the GI50 in the test on NCI-H23, with DU-145, in the test with SF-539, in the test on SK-MEL-5, in the test with LOX IMVI and with CCRF-CEM was > 100 µM (inactive) throughout. The GI50 in the test on OVCAR-3, with A498, in the test with BT-549, in the test with OVCAR-4 and in the test on SK-MEL-2 was > 100 µM (inactive) throughout.
For `CC(=O)N1CN2C(=O)CCC2c2cc(C)ccc21` (centres undefined), the GI50 in the test on CAKI-1 is > 100 µM (inactive); in the test on HCT-15, more than 100 µM; in the test with SNB-75 it was > 100 µM (inactive); in the test with UACC-62, > 100 µM (inactive); in the test on HCC 2998, > 100 µM (inactive); with U-251, > 100 µM (inactive). The GI50 in the test with NCI-H23, with DU-145, in the test on SF-539, with SK-MEL-5, with LOX IMVI and in the test on CCRF-CEM was > 100 µM (inactive) in each case. For the same compound, the GI50 in the test with OVCAR-3, in the test with SNB-19, in the test on A498, with Hs-578T, in the test with OVCAR-4 and with SK-MEL-2 was > 100 µM (inactive) in each case. In addition, the GI50 in the test on Malme-3M was > 100 µM (inactive).
Take `Cc1[nH]c2ncn(N)c(=N)c2c1Cc1ccccc1`: the GI50 with CAKI-1 is > 100 µM (inactive); in the test with HCT-15, more than 100 µM; with SNB-75 it was 42.7 µM (inactive); in the test with UACC-62, 58.1 µM (inactive); in the test with HCC 2998, > 100 µM (inactive); in the test on U-251 it was > 100 µM (inactive). In addition, the GI50 in the test with NCI-H23 was > 100 µM (inactive); in the test with SF-539 it was 58.2 µM (inactive); in the test with SK-MEL-5, 19.1 µM (inactive); in the test on LOX IMVI it was 67.1 µM (inactive); in the test with CCRF-CEM, > 100 µM (inactive); with OVCAR-3, > 100 µM (inactive). Also, the GI50 in the test on SNB-19 is > 100 µM (inactive); with A498, > 100 µM (inactive); in the test on BT-549, > 100 µM (inactive); in the test on OVCAR-4, > 100 µM (inactive); in the test on SK-MEL-2, > 100 µM (inactive); in the test with Malme-3M, 6.76 µM (inactive).
`Cc1ccc(C2c3c(n(C)c(=O)n(C)c3=O)OC(N(C)C)(N(C)C)C2(F)F)cc1` (centres undefined): the GI50 in the test on CAKI-1 is > 100 µM (inactive); with HCT-15 it was more than 100 µM; with SNB-75, > 100 µM (inactive); with UACC-62 it was > 100 µM (inactive); in the test with HCC 2998 it was > 100 µM (inactive); with U-251, > 100 µM (inactive). Further, the GI50 in the test with NCI-H23, with DU-145, in the test on SK-MEL-5, in the test on LOX IMVI, in the test on CCRF-CEM and with OVCAR-3 was > 100 µM (inactive) throughout. For the same compound, the GI50 in the test with SNB-19 is > 100 µM (inactive); in the test with A498, > 100 µM (inactive); in the test with BT-549 it was > 100 µM (inactive); in the test with OVCAR-4, 51.4 µM (inactive); with SK-MEL-2 it was > 100 µM (inactive).
On to `O=C1c2cc3c(cc2CC12Cc1ccccc1C2)CCC3`, for which the GI50 was 15.5 µM (inactive) in the test with CAKI-1; 33.9 µM in the test on HCT-15; 31.6 µM (inactive) in the test with SNB-75; 31 µM (inactive) in the test with HCC 2998; 37.6 µM (inactive) in the test on U-251; 50.5 µM (inactive) in the test on NCI-H23. Also, the GI50 was 52 µM (inactive) in the test with DU-145; 31.4 µM (inactive) with SF-539; 18.3 µM (inactive) in the test on SK-MEL-5; 18.6 µM (inactive) in the test on LOX IMVI; 30.5 µM (inactive) in the test on CCRF-CEM; 41.8 µM (inactive) in the test with OVCAR-3. Further, the GI50 in the test with SNB-19 is > 100 µM (inactive); with A498, 34.4 µM (inactive); in the test with Hs-578T it was 31.6 µM (inactive); in the test with OVCAR-4 it was 50.2 µM (inactive); in the test with SK-MEL-2, 23.5 µM (inactive); in the test with Malme-3M, 28.1 µM (inactive).
As to `COc1ccc(/N=C2\S/C(=N\C(=N\c3ccccc3)SCc3ccccc3)N(c3ccccc3)\C2=N/c2ccc(OC)cc2)cc1`, the GI50 in the test with HCT-15 was more than 100 µM; in the test with SNB-75, > 100 µM (inactive); with UACC-62 it was > 100 µM (inactive); in the test on HCC 2998, > 100 µM (inactive); in the test on NCI-H23, > 100 µM (inactive); in the test with SK-MEL-5 it was > 100 µM (inactive). The GI50 with CCRF-CEM, in the test on SNB-19, in the test on Hs-578T, in the test with BT-549, in the test with SK-MEL-2 and in the test on Malme-3M was > 100 µM (inactive) each time.
Regarding `CCOC(=O)C(O)(CC1=NC(C(=O)OC)(C(=O)OC)C(c2cccc(C=O)c2)O1)C(=O)OCC` (centres undefined), the GI50 was > 100 µM (inactive) in the test with CAKI-1; more than 100 µM with HCT-15; > 100 µM (inactive) in the test on SNB-75; > 100 µM (inactive) with UACC-62; > 100 µM (inactive) with HCC 2998; > 100 µM (inactive) in the test on U-251. For the same compound, the GI50 in the test with NCI-H23, in the test on DU-145, with SK-MEL-5, with LOX IMVI, in the test with CCRF-CEM and in the test on OVCAR-3 was > 100 µM (inactive) each time. The GI50 in the test with SNB-19, with A498, with BT-549, in the test on OVCAR-4 and with SK-MEL-2 was > 100 µM (inactive) in each case.
Turning to `Cc1cn(CCCC2=NCCCN2)c(=O)[nH]c1=O`, the GI50 with CAKI-1 is > 100 µM (inactive); in the test on HCT-15, more than 100 µM; with SNB-75 it was > 100 µM (inactive); with UACC-62 it was > 100 µM (inactive); with HCC 2998, > 100 µM (inactive); with U-251, > 100 µM (inactive). Moreover, the GI50 in the test on NCI-H23, with DU-145, in the test on SF-539, in the test with SK-MEL-5, with LOX IMVI and in the test on CCRF-CEM was > 100 µM (inactive) throughout. Also, the GI50 in the test on OVCAR-3, in the test with SNB-19, in the test with A498, in the test with Hs-578T, in the test on OVCAR-4 and in the test on SK-MEL-2 was > 100 µM (inactive) in each case. Moreover, the GI50 in the test with Malme-3M is > 100 µM (inactive).
Consider `NC(=S)Nc1ccc(S(=O)(=O)Nc2ccc(S(N)(=O)=O)cc2)cc1`, for which the GI50 in the test on CAKI-1 is > 100 µM (inactive); with HCT-15, more than 100 µM; in the test with UACC-62, > 100 µM (inactive); in the test with U-251 it was > 100 µM (inactive); with NCI-H23, > 100 µM (inactive); with DU-145, > 100 µM (inactive). Besides, the GI50 in the test on SK-MEL-5, in the test on LOX IMVI, in the test with CCRF-CEM, in the test with OVCAR-3, in the test with SNB-19 and with A498 was > 100 µM (inactive) in each case. The GI50 in the test with BT-549, with OVCAR-4, in the test with SK-MEL-2 and in the test on Malme-3M was > 100 µM (inactive) each time.
For the compound `CSc1nc2c(c(=O)n1C)N=C(c1ccccc1)[C@H](C(CC(=O)c1ccccc1)c1ccccc1)C(c1ccccc1)N2` (some centres undefined), the GI50 in the test on CAKI-1 is > 100 µM (inactive); in the test with HCT-15, more than 100 µM; in the test on SNB-75, 3.12 µM (inactive); with UACC-62, > 100 µM (inactive); with HCC 2998, > 100 µM (inactive); in the test with U-251 it was > 100 µM (inactive). For the same compound, the GI50 in the test on NCI-H23 is > 100 µM (inactive); in the test with DU-145 it was > 100 µM (inactive); with SF-539, > 100 µM (inactive); in the test on SK-MEL-5 it was > 100 µM (inactive); in the test on LOX IMVI it was > 100 µM (inactive); with CCRF-CEM, 44.8 µM (inactive). Besides, the GI50 with OVCAR-3 was > 100 µM (inactive); in the test on SNB-19, > 100 µM (inactive); in the test with A498, > 100 µM (inactive); in the test with BT-549, > 100 µM (inactive); with OVCAR-4, 23.6 µM (inactive); with SK-MEL-2, > 100 µM (inactive). Besides, the GI50 with Malme-3M was > 100 µM (inactive).
For `CN(C(=O)C1CCCCCC1=O)c1ccccc1Cl` (centres undefined), the GI50 was > 100 µM (inactive) in the test with CAKI-1; more than 100 µM in the test with HCT-15; > 100 µM (inactive) in the test on SNB-75; > 100 µM (inactive) with U-251; > 100 µM (inactive) with NCI-H23; > 100 µM (inactive) in the test on DU-145. The GI50 in the test with SF-539, in the test on SK-MEL-5, in the test on LOX IMVI, in the test on OVCAR-3, in the test on SNB-19 and in the test with A498 was > 100 µM (inactive) in each case. The GI50 with BT-549, in the test on OVCAR-4 and with Malme-3M was > 100 µM (inactive) in each case.
